Results: patent US20130209431A1, “ISOLATION AND CULTURE OF ERYTHROID PROGENITOR CELLS” (NEW YORK BLOOD CENTER, INC., priority 2012, published 2013)

Experiments:
[1] = tested on: CD34+CD36−IL-3R+ cells (BFU-E cells); assay: Liquid culture of sorted BFU-E cells, cell numbers counted every day; format: cell-based, human
Description: (§1) Cells from day 5 cultures were used for sorting since at this time the cultured cells contain about equal numbers of BFU-E and CFU-E forming progenitors. 50×10^6 cells were suspended in 4 mL PBS/0.5% BSA in a 50 mL tube. Cells were blocked with 4% human AB serum for 10 min and subsequently incubated with PE-conjugated mouse anti-human CD34, FITC-conjugated mouse anti-human CD36 and PE-Cy7-conjugated mouse anti-human IL3-R on ice for 30 min in the dark. Cells were washed twice with 40 mL PBS/0.5% BSA and re-suspended in 5 mL PBS/0.5% BSA and stained with the viability marker 7-AAD on ice for 10 min in the dark. Sorting was performed on a MOFLO high-speed cell sorter (Beckman-Coulter). To sort BFU-E and CFU-E cells from primary human bone marrow, we first obtained mononuclear cells by Ficoll density gradient separation. We then obtained CD45^+ cells by positive selection using CD45 magnetic beads. The CD45^+ cells were stained with PE-conjugated mouse anti-human CD34, FITC-conjugated mouse anti-human CD36, PE-Cy7-conjugated mouse anti-human IL3-R, APC-cy7-conjugated mouse anti-human CD45 and APC-conjugated mouse anti-human CD71 for 30 min in the dark. Cells were washed twice with 40 mL PBS/0.5% BSA, re-suspended in 5 mL PBS/0.5% BSA and stained with the viability marker 7-AAD on ice for 10 min in the dark. Sorting was performed on a MOFLO high-speed cell sorter (Beckman-Coulter).
(§2) 0.1×10^6 of sorted BFU-E and the CFU-E cells were cultured in 1 ml of the first phase culture media (as described before) in the absence or presence of dexamethasone (1 μM) or lenalidomide (10 nM). The cell numbers were counted every day.

human CD34+ cells = details: cited from earlier work
[2] = tested on: CD34−CD36+IL-3R− cells (CFU-E cells); assay: Liquid culture of sorted CFU-E cells, cell numbers counted every day; format: cell-based, human
Description: as §1, with “Cells were washed twice with 40 mL PBS/0.5% BSA, re-suspended in 5 mL PBS/0.5% BSA and stained with the viability marker 7-AAD on ice for 10 min in the dark. Sorting was performed on a MOFLO high-speed cell sorter (Beckman-Coulter).” left out
as §2

CFU-E cells = assay: Flow cytometry of GPA surface expression on cultured CFU-E cells (self-renewal); format: cell-based, human; details: cultured for 6 days in the presence of lenalidomide
Description: Cells taken from culture every day (day 1 to day 7) were analyzed for cell surface expression of CD34, IL-3R, CD36, CD71, CD45 and GPA using FACS canto flow cytometer (Becton Dickinson). Cultured cells (1×10^5) were suspended in PBS supplemented with 0.5% BSA and incubated with 4% human AB serum for 10 min on ice in the dark. The cells were subsequently incubated with fluorochrome-conjugated antibodies for 30 min at 4° C. and then washed once with PBS-0.5% BSA. The washed cells were then incubated for 10 min on ice in the dark with 7-AAD for identification of dead cells. All the reactions were performed under conditions of antibody saturation. Electronic compensation was done using unstained samples.
as §2
Next, the effect of lenalidomide on CFU-E cells was examined. In this population, the expression of GPA was determined since GPA becomes positive as CFU-E cells differentiate into proerythroblasts. […] These findings imply that lenalidomide promotes self-renewal of the CFU-E cells.

| SMILES | expansion of CD34+CD36−IL-3R+ cells in the presence versus absence of dexamethasone ([1]; dexamethasone 1 μM) [fold] | expansion of CD34+CD36−IL-3R+ cells ([1]; dexamethasone 1 μM, from 0.1×10^6 cells, untreated 70-fold) [fold] | cell number reached by CD34+CD36−IL-3R+ cells ([1]; dexamethasone 1 μM, start 0.1×10^6, untreated 7×10^6) | duration of continued proliferation of CD34+CD36−IL-3R+ cells ([1]; dexamethasone 1 μM, untreated 6 days) [days] | reduction of BFU-E cell doubling time ([1]; in the presence of dexamethasone) [%] | effect on BFU-E colony formation (human CD34+ cells) | effect on CFU-E colony formation (human CD34+ cells) | effect on the proliferation of CD34+CD36−IL-3R+ cells ([1]; lenalidomide 10 nM) | response of CD34−CD36+IL-3R− cell proliferation to treatment ([2]; dexamethasone 1 μM or lenalidomide 10 nM) | increase of CD34−CD36+IL-3R− cell numbers every day ([2]; lenalidomide 10 nM, doubled every 24 hours in the absence) | surface expression of GPA on CFU-E cells (CFU-E cells) |
| --- | --- | --- | --- | --- | --- | --- | --- | --- | --- | --- | --- |
| C[C@@H]1C[C@H]2[C@@H]3CCC4=CC(=O)C=C[C@]4(C)[C@@]3(F)[C@@H](O)C[C@]2(C)[C@@]1(O)C(=O)CO [dexamethasone] | ~20 | 1300 | 130×10^6 | 9 | 33 | – | – | – | – | – | – |
| Nc1cccc2c1CN(C1CCC(=O)NC1=O)C2=O (centres unmarked) [lenalidomide] | – | – | – | – | – | not BFU-E colony | promotes CFU-E colony formation | no effect | enhanced the proliferation and expansion | tripled | remains negative |
